The compounds below were run against T1, Trace amine-associated receptor 1 (Homo sapiens, UniProt Q96RJ0).
T1 sequence (Q96RJ0 whole entry): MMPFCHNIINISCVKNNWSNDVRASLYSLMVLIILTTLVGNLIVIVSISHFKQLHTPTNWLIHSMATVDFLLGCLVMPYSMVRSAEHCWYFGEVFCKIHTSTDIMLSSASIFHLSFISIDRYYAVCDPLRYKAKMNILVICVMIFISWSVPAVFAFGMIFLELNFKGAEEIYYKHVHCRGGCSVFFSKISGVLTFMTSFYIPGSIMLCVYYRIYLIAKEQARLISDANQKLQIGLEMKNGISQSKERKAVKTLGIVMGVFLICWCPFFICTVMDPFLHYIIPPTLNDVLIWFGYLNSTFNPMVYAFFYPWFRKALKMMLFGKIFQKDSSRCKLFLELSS

Row | SMILES | Ki [nM]
1 | CN1CCN(C2Cc3ccccc3Sc3ccc(Cl)cc32)CC1 (stereo unspecified) [1-(8-chloro-10,11-dihydrodibenzo[b,f]thiepin-10-yl)-4-methylpiperazine] | 493
2 | NCCc1ccc(O)cc1 | 34
3 | NCCc1c[nH]c2ccccc12 [1H-indole-3-ethanamine] | 1080
4 | OCCc1ccccc1 [NSC_6054] | 8
5 | NCCc1c[nH]cn1 [[3H]histamine] | 3110
6 | NCC(O)c1ccc(O)c(O)c1 (stereo not drawn) [Noradrenaline,(+)] | > 10000
